In patent publication US4731109A, “Herbicidal 2-haloacetanilides” (Monsanto Company, priority 1982, dated 1988):

How the values were obtained:
Quackgrass = assay: Herbicidal effect in a variety of soil types; format: in vivo; conditions: Table XVII C; for selectivity factor (GR15/GR85): in soybeans
Source text: The herbicide treatments were by soil incorporation with seeds planted 0.375 in (0.95 cm) deep, with 0.25 in (0.64 cm overhead irrigation. Observations were made about three weeks after treatment. Selectivity factors are shown in parenthesis.

corn = assay: Greenhouse pre-emergence GR15/GR85 selectivity test; format: in vivo
Procedure, shortened: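 Active ingredient mixed into cover soil over seeded pans (pre-emergence soil incorporation), initial overhead irrigation equal to 0.64 cm rainfall, then subirrigation. Scored about 2-3 weeks after seeding; GR15 (crop) and GR85 (weed) rates in kg/ha, selectivity factor = crop GR15 / weed GR85.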

rape = assay: as above; format: in vivo; conditions: Table XV
Source text: (§1) A good grade of top soil is placed in aluminum pans and compacted to a depth of three-eighths to one-half inch from the top of the pan. On the top of the soil is placed a number of seeds or vegetative propagules of various plant species. The soil required to level fill the pans after seeding or adding vegetative propagules is weighed into a pan. The soil and a known amount of the active ingredient applied in a solvent or as a wettable powder suspension are thoroughly mixed, and used to cover the prepared pans. After treatment, the pans are given an initial overhead irrigation of eater, equivalent to one-fourth inch (0.64 cm) rainfall, then watered by subirrigation as need to give adequate moisture for germination and growth. As an alternative procedure, the overhead irrigation may be omitted. Observations are made about 2-3 weeks after seeding and treatment.
(§2) In the discussion and tables of data below, reference is made to herbicide application rates symbolized as "GR15 " and "GR85 "; these rates are given in kilograms per hectare (kg/ha) which are convertible into pounds per acre (lbs/A) by dividing the kg/ha rate by 1.12.
(§3) A further guide to the effectiveness of a chemical as a selective herbicide is the "selectivity factor" ("SF") for a herbicide in given crops and weeds. The selectivity factor is a measure of the relative degree of crop safety and weed injury and is expressed in terms of the GR15 /GR85 ratio, i.e., the GR15 rate for the crop divided by the GR85 rate for the weed, both rates in kg/ha (lb/A). In the tables below, selectivity factors are shown in parenthesis following the GR85 rate for each weed; the symbol "NS" indicates "non-selective". Marginal or undetermined selectivity is indicated by a dash (--).
(§4) Additionally, pre-emergence herbicidal data from other tests have established that compounds according to this invention also selectively suppress quackgrass, yellow nutsedge and/or other weeds in one or more of the crops cotton, peanuts, bush beans and/or rape. For example, in Table VI are presented data showing the herbicidal selectivity of the compounds of Examples 1 and 2 against quackgrass in rape and snap beans. Unless otherwise noted; greenhouse tests in Table VI and in other tables below involved herbicide treatments by soil incorporation and an initial overhead irrigation followed by subirrigation as described above.
(§5) In another greenhouse test, the compounds of Examples 3-5, 9 and 10 were tested for their herbicidal efficacy against a variety of resistant annual and perennial weeds in rape.

wild proso millet = assay: as above; format: in vivo, wild proso millet (panicum milicaeum); conditions: Table XVI
Source text: as §1, with “After treatment, the pans are given an initial overhead irrigation of eater, equivalent to one-fourth inch (0.64 cm) rainfall, then watered by subirrigation as need to give adequate moisture for germination and growth.” left out
as §3
(§6) Unless otherwise noted; greenhouse tests in Table VI and in other tables below involved herbicide treatments by soil incorporation and an initial overhead irrigation followed by subirrigation as described above.

shattercane = assay: as above; format: in vivo; conditions: Table XVI
Source text: as §1, with “After treatment, the pans are given an initial overhead irrigation of eater, equivalent to one-fourth inch (0.64 cm) rainfall, then watered by subirrigation as need to give adequate moisture for germination and growth.” left out
as §3, §6

itchgrass = assay: as above; format: in vivo; conditions: Table XVI
Source text: as §1, with “After treatment, the pans are given an initial overhead irrigation of eater, equivalent to one-fourth inch (0.64 cm) rainfall, then watered by subirrigation as need to give adequate moisture for germination and growth.” left out
as §3, §6

red rice = assay: as above; format: in vivo; conditions: Table XVI
Source text: as §1, with “After treatment, the pans are given an initial overhead irrigation of eater, equivalent to one-fourth inch (0.64 cm) rainfall, then watered by subirrigation as need to give adequate moisture for germination and growth.” left out
as §3, §6

fall panicum = assay: as above; format: in vivo; conditions: Table XVI
Source text: as §1, with “After treatment, the pans are given an initial overhead irrigation of eater, equivalent to one-fourth inch (0.64 cm) rainfall, then watered by subirrigation as need to give adequate moisture for germination and growth.” left out
as §3, §6

seedling johnsongrass = assay: as above; format: in vivo; conditions: Table XVI
Source text: as §1, with “After treatment, the pans are given an initial overhead irrigation of eater, equivalent to one-fourth inch (0.64 cm) rainfall, then watered by subirrigation as need to give adequate moisture for germination and growth.” left out
as §3, §6

Texas panicum = assay: as above; format: in vivo; conditions: Table XVI
Source text: as §1, with “After treatment, the pans are given an initial overhead irrigation of eater, equivalent to one-fourth inch (0.64 cm) rainfall, then watered by subirrigation as need to give adequate moisture for germination and growth.” left out
as §3, §6

alexandergrass = assay: as above; format: in vivo; conditions: Table XV
Source text: as §1, with “After treatment, the pans are given an initial overhead irrigation of eater, equivalent to one-fourth inch (0.64 cm) rainfall, then watered by subirrigation as need to give adequate moisture for germination and growth.” left out
as §3, §6

purple nutsedge = assay: as above; format: in vivo; conditions: Table XV
Source text: as §1, §2, §3, §4
In other greenhouse tests, compounds according to this invention have shown selective control of a variety of annual and perennial weeds in various crops. As further illustrative, the compound of Example 1 selectively controlled purple nutsedge in both corn nd soybeans, the respective crop/weed GR15 /GR85 ratios (expressed in kg/ha) being 0.67/0.25 (S.F.=2.7) in corn and 1.1/0.25 (S.F.=4.5) in soybeans. The compound of Example 8 has shown selective control of yellow nutsedge and quackgrass in corn and soybeans. The respective crop/yellownutsedge GR15 /GR85 ratios being >2.2/0.95 (S.F.=2.5) in corn; 2.2/0.5 (SF=4.5) in soybeans and the respective GR15 /GR85 ratios for both corn and soybeans in quackgrass being >2.2/0.5 (S.F.=4.5). In a test against yellow nutsedge in cotton, the GR15 /GR85 ratio (average of two replicates) was 2.0/0.95 (S.F.=2).
as §5

CCOCN(C(=O)CCl)c1c(CC)cccc1C(F)(F)F [Example 9, N--(ethoxymethyl)-2'-trifluoromethyl-6'-ethyl-2-chloroacetanilide]
GR85 (Quackgrass; Drummer silty clay): 0.17 Kg/Ha | GR85 (Quackgrass; Florida muck): 0.73 Kg/Ha | GR85 (Quackgrass; Ray silt loam): 0.13 Kg/Ha | GR85 (Quackgrass; Sarpy silty clay): 0.13 Kg/Ha | GR85 (Quackgrass; Wabash silty clay): 0.24 Kg/Ha | selectivity factor (GR15/GR85) (Quackgrass; Drummer silty clay): > 13 | selectivity factor (GR15/GR85) (Quackgrass; Florida muck): > 3 | selectivity factor (GR15/GR85) (Quackgrass; Ray silt loam): > 16.5 | selectivity factor (GR15/GR85) (Quackgrass; Sarpy silty clay): > 16.5 | selectivity factor (GR15/GR85) (Quackgrass; Wabash silty clay): 12.5 | GR15 (corn; Table IV, Replicate #2): 2.2 Kg/Ha | GR15 (corn; Table XII): 2.5 Kg/Ha | GR15 (corn; Table XIII): 1.7 Kg/Ha | GR15 Rate (rape): 0.98 Kg/Ha | GR85 Rate (wild proso millet): 0.56 Kg/Ha | selectivity factor (GR15/GR85) (wild proso millet; in lima beans): 1.3 | selectivity factor (GR15/GR85) (wild proso millet; in peanuts): 1.6 | GR85 Rate (shattercane): 0.21 Kg/Ha | selectivity factor (GR15/GR85) (shattercane; in lima beans): 3.6 | selectivity factor (GR15/GR85) (shattercane; in peanuts): 4.3 | GR85 Rate (itchgrass): 0.53 Kg/Ha | selectivity factor (GR15/GR85) (itchgrass; in lima beans): 1.4 | selectivity factor (GR15/GR85) (itchgrass; in peanuts): 1.7 | GR85 Rate (red rice): 0.42 Kg/Ha | selectivity factor (GR15/GR85) (red rice; in lima beans): 1.8 | selectivity factor (GR15/GR85) (red rice; in peanuts): 2.1 | GR85 Rate (fall panicum): 0.13 Kg/Ha | selectivity factor (GR15/GR85) (fall panicum; in lima beans): 5.8 | selectivity factor (GR15/GR85) (fall panicum; in peanuts): 6.9 | GR85 Rate (seedling johnsongrass): 0.25 Kg/Ha | selectivity factor (GR15/GR85) (seedling johnsongrass; in lima beans): 3 | selectivity factor (GR15/GR85) (seedling johnsongrass; in peanuts): 3.6 | GR85 Rate (Texas panicum): 0.56 Kg/Ha | selectivity factor (GR15/GR85) (Texas panicum; in lima beans): 1.3 | selectivity factor (GR15/GR85) (Texas panicum; in peanuts): 1.6 | GR85 Rate (alexandergrass): 0.19 Kg/Ha | selectivity factor (GR15/GR85) (alexandergrass; in rape): 5.2 | GR85 Rate (purple nutsedge): 0.19 Kg/Ha | selectivity factor (GR15/GR85) (purple nutsedge; in rape): 5.2
